The values that follow are results of earlier work, collected in PMC8391575, “Identification of Novel Cathepsin B Inhibitors with Implications in Alzheimer’s Disease: Computational Refining and Biochemical Evaluation” (Cells, 2021).

The test system of this data set is cathepsin B. To be noted: cited from earlier work.
[1] abbreviates: Table S1, read-out: IC50: half maximal inhibitory concentration.
The mark [2] stands for this setting: class of the experimental IC50, read-out: Activity Scale Experimental.
Setting [3] is: Figure 1, previously reported inhibitors of cathepsin B, read-out: IC50.

Read-outs that look alike come from different tables or passages of the source. Where a SMILES comes first, the peptide text is derived from it. Some results are limits rather than exact numbers.

Regarding `CC(C)C[C@H](NC(=O)[C@@H](NC(=O)N[C@@H](Cc1ccccc1)C(=O)O)C1CCN=C(N)N1)C(=O)N[C@H](C=O)Cc1ccccc1` (stereo partly drawn) [Compound N9, (2S)-2-[[(1S)-1-(2-amino-1,4,5,6-tetrahydropyrimidin-6-yl)-2-[[(2S)-4-methyl-1-oxo-1-[[(2S)-1-oxo-3-phenylpropan-2-yl]amino]pentan-2-yl]amino]-2-oxoethyl]carbamoylamino]-3-phenylpropanoic acid], the “pIC50 Experimental” value (Table 4) was 5.59. Moreover, the IC50 is, setting by setting: under setting [1], 2600 nM; under setting [2], over 2500 nM.
As to `Nc1nonc1-c1nc2ccccc2n1Cc1ccc(F)cc1` [Compound S5, 4-[1-[(4-fluorophenyl)methyl]benzimidazol-2-yl]-1,2,5-oxadiazol-3-amine], the “pIC50 Experimental” value (Table 4) is 4.47. Further, the IC50 under setting [2] is over 2500 nM.
Take `COc1cccc(Cn2c(-c3nonc3N)nc3ccccc32)c1` [Compound S27, 4-[1-[(3-methoxyphenyl)methyl]benzimidazol-2-yl]-1,2,5-oxadiazol-3-amine]: the “pIC50 Experimental” value (Table 4) is 4.34. The IC50 under setting [2] is over 2500 nM.
With `CC(=O)NC(=O)NC1OC(=O)C(Cl)=C1Cl` (stereo not drawn) [Compound S16, N-[(3,4-dichloro-5-oxo-2H-furan-2-yl)carbamoyl]acetamide], the “pIC50 Experimental” value (Table 4) is 5.67. In addition, the IC50 is 2120 nM under setting [1] and 300 to 2500 nM under setting [2].
On to `COc1ccc(-c2cc(=O)c3c(O)cc(O)cc3o2)cc1-c1c(O)cc(O)c2c(=O)cc(-c3ccc(O)cc3)oc12` [AMF5, 4’-methylamentoflavone], for which, under setting [3], the IC50 is 810 nM.
Turning to `CC(=O)NC(CC(C)C)C(=O)NC(C(=O)NC(C=O)CCCCN)C(C)C` (stereo not drawn) [Compound S3, 2-acetamido-N-[1-[(6-amino-1-oxohexan-2-yl)amino]-3-methyl-1-oxobutan-2-yl]-4-methylpentanamide] (Ac-Leu-Val-Lys-aldehyde; configuration not given here), the “pIC50 Experimental” value (Table 4) is 8.4. The IC50 under setting [2] was under 300 nM.
Take `CC1=C(O)C(=O)C=C2C1=CC=C1[C@@]2(C)CC[C@@]2(C)[C@@H]3C[C@](C)(C(=O)O)CC[C@]3(C)CC[C@]12C` [Compound N8, (2R,4aS,6aR,6aS,14aS,14bR)-10-hydroxy-2,4a,6a,6a,9,14a-hexamethyl-11-oxo-1,3,4,5,6,13,14,14b-octahydropicene-2-carboxylic acid]: the “pIC50 Experimental” value (Table 4) is recorded as 3.91. Further, the IC50 was 1250 nM under setting [1], over 2500 nM under setting [2] and 125000 nM (read-out: IC50).
Turning to `NCCCCNC(=O)[C@H](Cc1ccc(O)cc1)NC(=O)[C@H]1O[C@@H]1C(=O)O` [Compound N7, (2S,3S)-3-{[(2S)-1-[(4-Aminobutyl)amino]-3-(4-hydroxyphenyl)-1-oxo-2-propanyl]carbamoyl}-2-oxiranecarboxylic acid], the “pIC50 Experimental” value (Table 4) is listed as 6.55. Further, the IC50 under setting [1] was 280 nM and the IC50 under setting [2] was under 300 nM.
Consider `O=C(Oc1oc(-c2ccco2)nc1/C=N/c1ccccc1)c1ccco1` [Compound S22, [2-(furan-2-yl)-4-(phenyliminomethyl)-1,3-oxazol-5-yl] furan-2-carboxylate], for which, where the note is “Table 4”, the “pIC50 Experimental” value is 4.41. The IC50 under setting [2] is over 2500 nM.
For `Nc1cc(OC(=O)c2cccs2)nn1S(=O)(=O)c1ccccc1` [Compound S34, [5-amino-1-(benzenesulfonyl)pyrazol-3-yl] thiophene-2-carboxylate], the “pIC50 Experimental” value (Table 4) is on record as 6.61. In addition, the IC50 under setting [2] is under 300 nM.
For the compound `NC(N)=NCCCCNC(=O)C(Cc1ccc(O)cc1)NC(=O)C1OC1C(=O)O` (stereo not drawn) [Compound N16, 3-[[1-[4-(diaminomethylideneamino)butylamino]-3-(4-hydroxyphenyl)-1-oxopropan-2-yl]carbamoyl]oxirane-2-carboxylic acid], where the note is “Table 4”, the “pIC50 Experimental” value was 6.49. The IC50 by setting is: under setting [1], 320 nM; under setting [2], 300 to 2500 nM.
For `CCCNC(=O)C1OC1C(=O)NC(C(=O)N1CCCC1C(=O)OC)C(C)CC` (stereo not drawn) [Compound S38, methyl1-[3-methyl-2-[[3-(propylcarbamoyl)oxirane-2-carbonyl]amino]pentanoyl]pyrrolidine-2-carboxylate], the IC50 was […] under setting [3], […] under setting [1] and […] under setting [2]. Besides, the “pIC50 Experimental” value (Table 4) is […].
`CC(C)CC(NC(=O)C1OC1C(=O)O)C(=O)NCCCCCO` (stereo not drawn) [Compound N1, 3-[[1-(5-hydroxypentylamino)-4-methyl-1-oxopentan-2-yl]carbamoyl]oxirane-2-carboxylic acid]: where the note is “Table 4”, the “pIC50 Experimental” value is given as 7.14. For the same compound, the IC50 under setting [2] was under 300 nM.
With `O=[N+]([O-])NC1=NCCN1Cc1ccc(Cl)nc1` [Compound N10, N-[1-[(6-chloropyridin-3-yl)methyl]-4,5-dihydroimidazol-2-yl]nitramide], where the note is “Table 4”, the “pIC50 Experimental” value was 8.03. The IC50 under setting [2] is under 300 nM.
Turning to `CC(C)CCNC(=O)[C@H](CC(C)C)NC(=O)[C@H]1O[C@@H]1C(=O)O` [Compound N14, (2S,3S)-3-[[(2S)-4-methyl-1-(3-methylbutylamino)-1-oxopentan-2-yl]carbamoyl]oxirane-2-carboxylic acid], the “pIC50 Experimental” value is 8.47. Besides, the IC50 (read-out: Activity Scale Experimental) is under 300 nM.
As to `Cc1ccc(S(=O)(=O)n2nc(OC(=O)c3ccco3)cc2N)cc1` [Compound S12, [5-amino-1-(4-methylphenyl)sulfonylpyrazol-3-yl] furan-2-carboxylate], the “pIC50 Experimental” value (Table 4) is reported as 5.76. Also, the IC50 runs as follows: under setting [1], 1750 nM; under setting [2], 300 to 2500 nM.
Turning to `CC1=C(C)C[S+]([O-])N(S(=O)(=O)c2ccc(Cl)cc2)C1` (stereo not drawn) [Compound S25, 2-(4-chlorophenyl)sulfonyl-4,5-dimethyl-3,6-dihydrothiazine 1-oxide], the “pIC50 Experimental” value (Table 4) is on record as 5.38. In addition, the IC50 under setting [2] is over 2500 nM.
For the compound `NC(N)=NCCCCNC(=O)C(Cc1ccccc1)NC(=O)C1OC1C(=O)O` (stereo not drawn) [Compound N15, 3-[[1-[4-(diaminomethylideneamino)butylamino]-1-oxo-3-phenylpropan-2-yl]carbamoyl]oxirane-2-carboxylic acid], the “pIC50 Experimental” value (Table 4) is given as 6.57. Also, the IC50 by setting is: under setting [1], 270 nM; under setting [2], under 300 nM.
Regarding `O=C(CSc1nnc(-c2ccco2)c(-c2ccco2)n1)Nc1ccccc1` [Compound S37, 2-[[5,6-bis(furan-2-yl)-1,2,4-triazin-3-yl]sulfanyl]-N-phenylacetamide], the “pIC50 Experimental” value (Table 4) was 5.65. The IC50 under setting [2] is 300 to 2500 nM.
As for `Cc1ccc(S(=O)(=O)n2nc(OC(=O)c3cccs3)cc2N)cc1` [Compound S7, [5-amino-1-(4-methylphenyl)sulfonylpyrazol-3-yl] thiophene-2-carboxylate], the “pIC50 Experimental” value (Table 4) is listed as 5.7. Besides, the IC50 is 1990 nM under setting [1] and 300 to 2500 nM under setting [2].
Consider `CCC(=O)Oc1oc(-c2ccccc2)nc1/C=N/c1ccccc1OC` [Compound S21, [4-[(2-methoxyphenyl)iminomethyl]-2-phenyl-1,3-oxazol-5-yl] propanoate], for which, under “Table 4”, the “pIC50 Experimental” value is listed as 4.39. For the same compound, the IC50 under setting [2] was over 2500 nM.
`COc1ccc(S(=O)(=O)n2nc(OC(=O)c3ccco3)cc2N)cc1` [Compound S15]: for the setting “Table 4”, the “pIC50 Experimental” value is reported as 6.03. For the same compound, the IC50 under setting [2] was 300 to 2500 nM.
With `CC(=O)OC1(C(F)(F)F)Oc2ccccc2NC1=O` (stereo not drawn) [Compound S33, [3-oxo-2-(trifluoromethyl)-4H-1,4-benzoxazin-2-yl] acetate], the “pIC50 Experimental” value (Table 4) is 6.07. Also, the IC50 under setting [2] was 300 to 2500 nM.
Take `CCSc1ccccc1C(=O)n1nnc2ccccc21` [Compound S28, benzotriazol-1-yl-(2-ethylsulfanylphenyl)methanone]: the “pIC50 Experimental” value (Table 4) is listed as 5.15. Also, the IC50 under setting [2] was over 2500 nM.
For `Nc1cc(OC(=O)c2cccs2)nn1S(=O)(=O)c1ccc(F)cc1` [Compound S32, [5-amino-1-(4-fluorophenyl)sulfonylpyrazol-3-yl] thiophene-2-carboxylate], the “pIC50 Experimental” value (Table 4) was 6.36. Moreover, the IC50 under setting [2] was 300 to 2500 nM.
As for `Nc1cc(OC(=O)c2ccco2)nn1S(=O)(=O)c1ccc(F)cc1` [Compound S10, [5-amino-1-(4-fluorophenyl)sulfonylpyrazol-3-yl] furan-2-carboxylate], the “pIC50 Experimental” value (Table 4) was 5.9. For the same compound, under setting [2], the IC50 was 300 to 2500 nM.
As for `O=c1cc(-c2ccc(Oc3c(O)cc4oc(-c5ccc(O)cc5)cc(=O)c4c3O)cc2)oc2cc(O)cc(O)c12` [HIF, Hinokiflavone], the IC50 under setting [3] was 580 nM.
On to `CCOC(=O)[C@@H]1O[C@H]1C(=O)N[C@@H](CC(C)C)C(=O)N1CCN(Cc2ccc(OC)c(OC)c2OC)CC1` [Compound S39, ethyl(2R,3R)-3-[[(2S)-4-methyl-1-oxo-1-[4-[(2,3,4-trimethoxyphenyl)methyl]piperazin-1-yl]pentan-2-yl]carbamoyl]oxirane-2-carboxylate; sulfuric acid], for which the “pIC50 Experimental” value (Table 4) was 6.09. The IC50 by setting is: under setting [1], 800 nM; under setting [2], 300 to 2500 nM.
For `COc1ccc(S(=O)(=O)n2nc(OC(=O)c3ccccc3)cc2N)cc1` [Compound S17, [5-amino-1-(4-methoxyphenyl)sulfonylpyrazol-3-yl] benzoate], the “pIC50 Experimental” value (Table 4) is 5.02. Moreover, the IC50 under setting [2] is over 2500 nM.
As for `COc1cc(OC)cc(-c2cc3cnc(N)nc3nc2NC(=O)NC(C)(C)C)c1` [Compound N18, 1-[2-amino-6-(3,5-dimethoxyphenyl)pyrido[2,3-d]pyrimidin-7-yl]-3-tert-butylurea], the “pIC50 Experimental” value (Table 4) is recorded as 6.24. Moreover, the IC50 under setting [1] is 580 nM and the IC50 under setting [2] was 300 to 2500 nM.
Turning to `O=c1cc(-c2ccc(O)c(-c3c(O)cc(O)c4c(=O)cc(-c5ccc(O)cc5)oc34)c2)oc2cc(O)cc(O)c12` [Compound N3, 8-[5-(5,7-dihydroxy-4-oxochromen-2-yl)-2-hydroxyphenyl]-5,7-dihydroxy-2-(4-hydroxyphenyl)chromen-4-one], the IC50 runs as follows: under setting [3], 1170 nM; under setting [1], 1750 nM; under setting [2], 300 to 2500 nM. In addition, the “pIC50 Experimental” value (Table 4) is listed as 5.76.
